Test results published in ChEMBL document CHEMBL3112450, “Synthesis and in vitro antitumor evaluation of primary amine substituted quinazoline linked benzimidazole” (Bioorg Med Chem Lett, 2014).

Experiments:
Type in all cases: functional
U-251 = experiment: Cytotoxicity against human U251 cells assessed as cell growth at 10^-7 M after 48 hrs by SRB assay; details: U-251, 48 h, read-out: Activity
SW-620 [1] = experiment: Cytotoxicity against human SW620 cells assessed as cell growth at 10^-4 M after 48 hrs by SRB assay; details: SW-620, 48 h, read-out: Activity
OVCAR-3 [2] = experiment: Cytotoxicity against human OVCAR3 cells assessed as cell growth at 10^-6 M after 48 hrs by SRB assay; details: OVCAR-3, 48 h, read-out: Activity
HL-60(TB) = experiment: Cytotoxicity against human HL-60(TB) cells assessed as cell growth at 10^-4 M after 48 hrs by SRB assay; details: HL-60, 48 h, read-out: Activity
NCI-H226 [3] = experiment: Cytotoxicity against human NCI-H226 cells assessed as cell growth at 10^-6 M after 48 hrs by SRB assay; details: NCI-H226, 48 h, read-out: Activity
[4] = Cytotoxicity against human NCI-ADR-RES cells assessed as cell growth at 10^-4 M after 48 hrs by SRB assay; details: read-out: Activity
SW-620 [5] = experiment: Cytotoxicity against human SW620 cells assessed as cell growth at 10^-8 M after 48 hrs by SRB assay; details: SW-620, 48 h, read-out: Activity
786-0 [6] = experiment: Cytotoxicity against human 786-0 cells assessed as cell growth at 10^-4 M after 48 hrs by SRB assay; details: 786-0, 48 h, read-out: Activity
SR = experiment: Cytotoxicity against human SR cells assessed as cell growth at 10^-8 M after 48 hrs by SRB assay; details: read-out: Activity
HCC 2998 = experiment: Cytotoxicity against human HCC2998 cells assessed as cell growth at 10^-7 M after 48 hrs by SRB assay; details: HCC 2998, 48 h, read-out: Activity
SF-539 [7] = experiment: Cytotoxicity against human SF539 cells assessed as cell growth at 10^-6 M after 48 hrs by SRB assay; details: SF-539, 48 h, read-out: Activity
MCF7 = experiment: Cytotoxicity against human MCF7 cells assessed as cell growth at 10^-6 M after 48 hrs by SRB assay; details: MCF7, 48 h, read-out: Activity
LOX IMVI = experiment: Cytotoxicity against human LOXIMVI cells after 48 hrs by SRB assay
[8] = Cytotoxicity against human Hs578T cells assessed as cell growth at 10^-8 M after 48 hrs by SRB assay; details: Hs-578T, read-out: Activity
A498 = experiment: Cytotoxicity against human A498 cells assessed as cell growth at 10^-6 M after 48 hrs by SRB assay; details: A498, 48 h, read-out: Activity
OVCAR-3 [9] = experiment: Cytotoxicity against human OVCAR3 cells assessed as cell growth at 10^-7 M after 48 hrs by SRB assay; details: OVCAR-3, 48 h, read-out: Activity
RXF 393 = experiment: Cytotoxicity against human RXF393 cells after 48 hrs by SRB assay; details: RXF 393, 48 h
NCI-H23 = experiment: Cytotoxicity against human NCI-H23 cells assessed as cell growth at 10^-6 M after 48 hrs by SRB assay; details: NCI-H23, 48 h, read-out: Activity
SN12C = experiment: Cytotoxicity against human SN12C cells assessed as cell growth at 10^-8 M after 48 hrs by SRB assay; details: read-out: Activity
[10] = Cytotoxicity against human Hs578T cells after 48 hrs by SRB assay; details: Hs-578T
UACC-62 = experiment: Cytotoxicity against human UACC62 cells after 48 hrs by SRB assay; details: UACC-62, 48 h
[11] = Cytotoxicity against human OVCAR4 cells after 48 hrs by SRB assay; details: OVCAR-4, 48 h
T47D [12] = experiment: Cytotoxicity against human T47D cells assessed as cell growth at 10^-7 M after 48 hrs by SRB assay; details: read-out: Activity
SF-295 = experiment: Cytotoxicity against human SF295 cells assessed as cell growth at 10^-4 M after 48 hrs by SRB assay; details: SF-295, 48 h, read-out: Activity
SF-539 [13] = experiment: Cytotoxicity against human SF539 cells after 48 hrs by SRB assay; details: SF-539, 48 h
MOLT-4 = experiment: Cytotoxicity against human MOLT4 cells assessed as cell growth at 10^-4 M after 48 hrs by SRB assay; details: MOLT-4, 48 h, read-out: Activity
NCI-H226 [14] = experiment: Cytotoxicity against human NCI-H226 cells assessed as cell growth at 10^-8 M after 48 hrs by SRB assay; details: NCI-H226, 48 h, read-out: Activity
T47D [15] = experiment: Cytotoxicity against human T47D cells assessed as cell growth at 10^-4 M after 48 hrs by SRB assay; details: read-out: Activity
HT-29 = experiment: Cytotoxicity against human HT-29 cells after 48 hrs by SRB assay; details: HT-29, 48 h
[16] = Cytotoxicity against human Hs578T cells assessed as cell growth at 10^-7 M after 48 hrs by SRB assay; details: Hs-578T, read-out: Activity
[17] = Cytotoxicity against human OVCAR5 cells assessed as cell growth at 10^-6 M after 48 hrs by SRB assay; details: OVCAR-5, 48 h, read-out: Activity
NCI-H522 = experiment: Cytotoxicity against human NCI-H522 cells assessed as cell growth at 10^-7 M after 48 hrs by SRB assay; details: NCI-H522, 48 h, read-out: Activity
COLO 205 = experiment: Cytotoxicity against human COLO205 cells after 48 hrs by SRB assay; details: COLO 205, 48 h
KM12 = experiment: Cytotoxicity against human KM12 cells assessed as cell growth at 10^-7 M after 48 hrs by SRB assay; details: KM12, 48 h, read-out: Activity
SNB-19 = experiment: Cytotoxicity against human SNB19 cells assessed as cell growth at 10^-4 M after 48 hrs by SRB assay; details: SNB-19, 48 h, read-out: Activity
IGROV-1 = experiment: Cytotoxicity against human IGROV1 cells assessed as cell growth at 10^-4 M after 48 hrs by SRB assay; details: IGROV-1, 48 h, read-out: Activity
MDA-MB-231 = experiment: Cytotoxicity against human MDA-MB-231 cells assessed as cell growth at 10^-6 M after 48 hrs by SRB assay; details: MDA-MB-231, 48 h, read-out: Activity
SK-MEL-28 = experiment: Cytotoxicity against human SK-MEL-28 cells assessed as cell growth at 10^-7 M after 48 hrs by SRB assay; details: SK-MEL-28, 48 h, read-out: Activity
786-0 [18] = experiment: Cytotoxicity against human 786-0 cells assessed as cell growth at 10^-8 M after 48 hrs by SRB assay; details: 786-0, 48 h, read-out: Activity

`C=CCn1c(C)nc2ccc(Nc3nc(Nc4ccc5nc(C)n(CC=C)c5c4)c4ccccc4n3)cc21` showed a growth at 0.1 µM (U-251) of 94%, a growth at 100 µM (SW-620 [1]) of -17% and a growth at 1 µM (OVCAR-3 [2]) of 94%. It also gave a growth at 100 µM (HL-60(TB)) of -32%, a growth at 1 µM (NCI-H226 [3]) of 94% and a growth at 100 µM [4] of -18%. It also gave a growth at 0.01 µM (SW-620 [5]) of 98%, a growth at 100 µM (786-0 [6]) of -18% and a growth at 0.01 µM (SR) of 97%. It also gave a growth at 0.1 µM (HCC 2998) of 101%, a growth at 1 µM (SF-539 [7]) of 94% and a growth at 1 µM (MCF7) of 85%. The GI50 (LOX IMVI) was 1550 nM, the growth at 0.01 µM [8] was 95% and the growth at 1 µM (A498) was 42%. It also gave a growth at 0.1 µM (OVCAR-3 [9]) of 96%, a GI50 (RXF 393) of 1800 nM and a TGI (RXF 393) of 3280 nM. It also gave a growth at 1 µM (NCI-H23) of 93%, a growth at 0.01 µM (SN12C) of 96% and a GI50 [10] of 1710 nM. The TGI [10] was 4080 nM, the GI50 (UACC-62) was 1550 nM and the TGI (UACC-62) was 2890 nM. For the same compound, the CC50 (UACC-62; read-out: LC50 (the source's name)) was 5380 nM, the GI50 [11] was 1530 nM and the TGI [11] was 2870 nM. For the same compound, the growth at 0.1 µM (T47D [12]) was 92%, the growth at 100 µM (SF-295) was -21% and the GI50 (SF-539 [13]) was 1710 nM. It also gave an LC50 (concentration giving 50% net cell kill) (SF-539 [13]) of 5710 nM, a TGI (SF-539 [13]) of 3120 nM and a growth at 100 µM (MOLT-4) of 2%. The growth at 0.01 µM (NCI-H226 [14]) was 90%, the growth at 100 µM (T47D [15]) was -22% and the GI50 (HT-29) was 1850 nM. For the same compound, the TGI (HT-29) was 3390 nM, the growth at 0.1 µM [16] was 96% and the growth at 1 µM [17] was 94%. For the same compound, the growth at 0.1 µM (NCI-H522) was 91%, the GI50 (COLO 205) was 1430 nM and the TGI (COLO 205) was 2740 nM. For the same compound, the growth at 0.1 µM (KM12) was 92%, the growth at 100 µM (SNB-19) was -34% and the growth at 100 µM (IGROV-1) was -25%. It also gave a growth at 1 µM (MDA-MB-231) of 72%, a growth at 0.1 µM (SK-MEL-28) of 95% and a growth at 0.01 µM (786-0 [18]) of 98%.
